One assay addresses T1, BaF3-FLT3-ITD (Homo sapiens, UniProt P36888, INS600HVDFREYEYD, cells depend on it).
T1 sequence (P36888 with tags, fused parts or gaps INS600HVDFREYEYD): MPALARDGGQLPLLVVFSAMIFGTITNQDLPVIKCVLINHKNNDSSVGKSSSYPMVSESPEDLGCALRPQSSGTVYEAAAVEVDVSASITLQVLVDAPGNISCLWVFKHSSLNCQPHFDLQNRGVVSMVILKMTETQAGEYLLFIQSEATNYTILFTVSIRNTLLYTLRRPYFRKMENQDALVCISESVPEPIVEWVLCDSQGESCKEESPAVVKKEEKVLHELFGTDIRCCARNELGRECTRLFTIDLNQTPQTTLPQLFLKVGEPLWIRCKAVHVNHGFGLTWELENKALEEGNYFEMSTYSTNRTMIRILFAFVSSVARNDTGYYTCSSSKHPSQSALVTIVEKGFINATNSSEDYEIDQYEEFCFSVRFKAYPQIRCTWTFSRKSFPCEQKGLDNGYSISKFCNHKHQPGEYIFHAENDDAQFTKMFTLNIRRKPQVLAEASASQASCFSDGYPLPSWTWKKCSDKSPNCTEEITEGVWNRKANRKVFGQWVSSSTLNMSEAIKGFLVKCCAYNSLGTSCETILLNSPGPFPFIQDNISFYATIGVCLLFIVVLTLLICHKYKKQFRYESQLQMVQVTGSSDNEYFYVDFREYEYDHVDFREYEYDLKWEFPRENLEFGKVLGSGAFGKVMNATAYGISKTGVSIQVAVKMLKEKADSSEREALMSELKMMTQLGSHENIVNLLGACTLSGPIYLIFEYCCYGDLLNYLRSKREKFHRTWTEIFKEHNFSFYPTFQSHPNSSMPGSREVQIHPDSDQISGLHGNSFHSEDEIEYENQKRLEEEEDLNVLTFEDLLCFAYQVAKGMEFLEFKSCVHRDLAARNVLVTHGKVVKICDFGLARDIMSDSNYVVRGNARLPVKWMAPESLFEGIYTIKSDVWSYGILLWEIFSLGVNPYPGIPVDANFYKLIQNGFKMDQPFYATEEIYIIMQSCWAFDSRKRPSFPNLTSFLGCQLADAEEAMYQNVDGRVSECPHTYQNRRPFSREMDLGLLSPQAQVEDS
Put plainly: CTB viability assay CS0046, BaF3-FLT3-ITD. As to conditions: CellTiter Blue viability, 72 hours. In kind it is cell-based, murine. The text has this:
Gene constructs containing the human FLT3 sequences FLT3-ITD, FLT3-ITD-F691L, FLT3-ITD-D835V and FLT3-D835V were synthesized by reverse translation of the human protein sequences, with codons optimized for mammalian expression. Sequence of the internal tandem duplication (ITD) was based on the MV4-11 ITD sequence. Synthetic DNA constructs were cloned into the pMSCV puro retroviral vector (Clontech) and transfected into the EcoPack2-293 packaging cell line (Clontech) to generate retroviruses that contain the different FLT3 constructs. Viruses were transduced into the IL-3-dependent, murine […] cell line, Ba/F3, and selected for puromycin resistance and IL-3 independence. All cell lines were cloned by limiting dilution and clones were used for all subsequent cell assays. Overexpression of the FLT3 mutants in the Ba/F3 cells results in constitutive phosphorylation of the exogenous FLT3 protein, which is required for IL-3 independence.
Cell lines were serum starved overnight in media containing 0.5% FBS, plated at 15,000 cells/well in 96-well white-walled tissue culture plates, and 3-fold serial dilutions of test compounds of Formula I were added for 72 hours at 37° C. CellTiter Blue (CTB, Promega) was added and incubated for an additional 3 hours at 37° C. Fluorescence was read at 560 nm excitation, 590 nm emission. Wells with CTB+media only were used for background subtraction, and the fluorescence of compound-treated cells was normalized to the fluorescence of DMSO-treated cells. IC50s were determined using Igor Pro software. All compounds are assayed in duplicate cell plates.
A general note: Alamar Blue is a resazurin reagent that responds to reducing activity.

The next assay deals with T2, BaF3-FLT3-ITD-D835V (Homo sapiens, UniProt P36888, INS600HVDFREYEYD/D835V, cells depend on it).
T2 sequence (P36888 with tags, fused parts or gaps INS600HVDFREYEYD/D835V): T1 sequence (P36888 with tags, fused parts or gaps INS600HVDFREYEYD) with D845V
Kind of assay: CTB viability assay CS0048, BaF3-FLT3-ITD-D835V. The settings on record: CellTiter Blue viability, 72 hours. Format: cell-based, murine. An outline of the steps: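 Murine Ba/F3 cells made IL-3-independent by retroviral human FLT3-ITD (MV4-11 ITD), ±F691L or D835V, serum-starved overnight in 0.5% FBS. 3-fold compound dilutions applied 72 h at 37° C; viability by CellTiter Blue fluorescence (ex 560/em 590 nm), normalized to DMSO, IC50 from duplicate plates.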

Setting [1] is: Table 4, compounds from WO 2011/022473, read-out: Cell Assay: CS0046: BaF3-FLT3-ITD CTB: IC50.
Setting [2] is: Table 4, compounds from WO 2011/022473, read-out: Cell Assay: CS0048: BaF3-FLT3-ITD-D835V CTB: IC50.
The mark [3] stands for this setting: BaF3-FLT3-ITD cells, read-out: Cell Assay: CS0046:BaF3-FLT3-ITD CTB:IC50.
Setting [4] is: BaF3-FLT3-ITD-D835V cells, read-out: Cell Assay: CS0048: BaF3-FLT3-ITD-D835V CTB:IC50.
The mark [5] stands for this setting: Table 3, read-out: Cell Assay: CS0046: BaF3-FLT3-ITD CTB: IC50.
The mark [6] stands for this setting: Table 3, read-out: Cell Assay: CS0048: BaF3-FLT3-ITD-D835V CTB: IC50.

Consider 9 compounds from patent publication US10829484B2, “Compounds and methods for kinase modulation, and indications therefor” (Plexxikon Inc., priority 2015, dated 2020).

Positions count from the first letter of the chain named. Where two headings read alike, the source gives them in different places.

On to `CNc1ccc(-c2ccc(CC(=O)Nc3cc(C(C)(C)C)on3)cc2)cn1` [reference compound], for which the GI50 stood at 0.146 nM at BaF3-FLT3-ITD (setting [1]) and 92 nM on BaF3-FLT3-ITD-D835V (setting [2]).

`Cc1nn(C)c(C)c1Nc1ncc(-c2ccc(CC(=O)Nc3cc(C4(C(F)(F)F)CC4)on3)c(F)c2)cn1` [P-029, 2-[2-fluoro-4-[2-[(l,3,5-trimethylpyrazol-4-yl)amino]pyrimidin-5-yl]phenyl]-N-[5-[1-(trifluoromethyl)cyclopropyl]isoxazol-3-yl]acetamide]: the GI50 at BaF3-FLT3-ITD (setting [3]) and at BaF3-FLT3-ITD-D835V (setting [4]) was 10 to 50 nM throughout.

`O=C(O)Cn1cc(Nc2ncc(-c3ccc(CC(=O)Nc4cc(C5(C(F)(F)F)CC5)on4)c(F)c3)cn2)cn1` [P-078, 2-[4-[[5-[3-fluoro-4-[2-oxo-2-[[5-[1-(trifluoromethyl)cyclopropyl]isoxazol-3-yl]amino]ethyl]phenyl]pyrimidin-2-yl]amino]pyrazol-1-yl]acetic acid]: the GI50 on BaF3-FLT3-ITD (setting [3]) lay in the range of 10 to 50 nM; on BaF3-FLT3-ITD-D835V (setting [4]), 50 to 100 nM.

Regarding `CC(C)(C)c1cc(NC(=O)Nc2ccc(-c3cnc(NC4CCOCC4)nc3)cn2)no1` [reference compound], the GI50 at BaF3-FLT3-ITD (setting [1]) worked out at 6.6 nM; at BaF3-FLT3-ITD-D835V (setting [2]), 673 nM.

Turning to `CCNc1ccc(-c2ccc(CC(=O)Nc3cc(C(C)(C)C)on3)cc2)cn1` [reference compound], the figures for the GI50 at BaF3-FLT3-ITD (setting [1]) and at BaF3-FLT3-ITD-D835V (setting [2]) were 0.252 nM and 94.2 nM, respectively.

As to `Cn1cc(Nc2ncc(-c3ccc(CC(=O)Nc4cc(C5(C(F)(F)F)CC5)on4)c(F)c3)cn2)cn1`, the GI50 at BaF3-FLT3-ITD (setting [5]) stood at 0.0861 nM; on BaF3-FLT3-ITD-D835V (setting [6]), 0.259 nM.

Regarding `CC(C)(c1cc(NC(=O)Cc2ccc(-c3ccc(NCCN4CCOCC4)nc3)cc2)no1)C(F)(F)F` [reference compound], the GI50 on BaF3-FLT3-ITD (setting [1]) turned out to be 0.597 nM; at BaF3-FLT3-ITD-D835V (setting [2]) it was 145 nM.

Regarding `CC(C)(C)c1cc(NC(=O)Nc2ccc(-c3cnc(NC4CC4)nc3)cn2)no1` [reference compound], the GI50 was 5.91 nM at BaF3-FLT3-ITD (setting [1]) and 585 nM on BaF3-FLT3-ITD-D835V (setting [2]).

With `O=C(Cc1ccc(-c2cnc(Nc3ccccc3)nc2)cc1F)Nc1cc(C2(C(F)(F)F)CC2)on1`, the GI50 at BaF3-FLT3-ITD (setting [5]) came out at 0.152 nM; on BaF3-FLT3-ITD-D835V (setting [6]), 0.772 nM.
